Measured values from patent publication US20080193976A1 (priority 2005, published 2008).

Tested on: CD4+T-cells
Format: cell-based, human

ARGRIRNGALLRVYVPRS [Peptide 75-76]
epitope classification: major (or significant) epitope
responders: 22.62%

RLVALYLAARLSWNQ [Peptide 15]
epitope classification: minor epitopes
responders: 14.29%

SQDLDAIWRGFYIAG [Peptide 65]
epitope classification: minor epitopes
responders: 14.29%

tetanus toxoid [reference compound]
positive control response: robust positive control responses
